In article PMC3203118, “Elucidation of the ATP7B N-Domain Mg^2+-ATP Coordination Site and Its Allosteric Regulation” (PLoS ONE, 2011):
Changes are numbered by the printed parent chain.

Columns and labels:
Experiment in all cases: surface plasmon resonance (BIAcore), protein immobilised on CM4 chip
[1] = target: T1, ATP7B N-domain (Nucleotide binding domain) (Homo sapiens, UniProt P35670, H1069Q); conditions: read-out: Kd (μM) / ATP
T1 construct: covalently immobilised on CM4 sensor chip
T1 sequence (P35670 1036-1196 H1069Q): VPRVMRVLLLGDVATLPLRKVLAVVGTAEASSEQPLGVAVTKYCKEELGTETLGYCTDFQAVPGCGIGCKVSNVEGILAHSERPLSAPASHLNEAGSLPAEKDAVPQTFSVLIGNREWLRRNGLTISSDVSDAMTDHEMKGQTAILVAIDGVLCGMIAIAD
Excerpt: (§1) surface plasmon resonance (BIAcore), protein immobilised on CM4 chip on ATP7B N-domain (Nucleotide binding domain)

[2] = target: T2, ATP7B N-domain (Nucleotide binding domain) (Homo sapiens, UniProt P35670, N1150A); conditions: read-out: Kd (μM) / ATP
T2 construct: covalently immobilised on CM4 sensor chip
T2 sequence (P35670 1036-1196 N1150A): T1 sequence (P35670 1036-1196 H1069Q) with Q34H, N115A
Excerpt: as §1

[3] = target: T3, ATP7B N-domain (Nucleotide binding domain) (Homo sapiens, UniProt P35670, DEL1121-1137)
T3 construct: covalently immobilised on CM4 sensor chip
T3 sequence (P35670 with tags, fused parts or gaps DEL1121-1137): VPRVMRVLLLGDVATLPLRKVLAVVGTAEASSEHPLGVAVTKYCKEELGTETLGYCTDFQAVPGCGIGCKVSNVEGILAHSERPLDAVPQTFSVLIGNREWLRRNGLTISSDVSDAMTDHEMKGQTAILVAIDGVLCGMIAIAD
Excerpt: as §1

[4] = target: T4, ATP7B N-domain (Nucleotide binding domain) (Homo sapiens, UniProt P35670); conditions: read-out: Kd (μM) / ATP
T4 construct: covalently immobilised on CM4 sensor chip
T4 sequence (P35670 1036-1196): T1 sequence (P35670 1036-1196 H1069Q) with Q34H
Excerpt: as §1

[5] = target: T5, ATP7B N-domain (Nucleotide binding domain) (Homo sapiens, UniProt P35670, D1167A); conditions: read-out: Kd (μM) / ATP
T5 construct: covalently immobilised on CM4 sensor chip
T5 sequence (P35670 1036-1196 D1167A): T1 sequence (P35670 1036-1196 H1069Q) with Q34H, D132A
Excerpt: as §1

[6] = target: T6, ATP7B N-domain (Nucleotide binding domain) (Homo sapiens, UniProt P35670, E1152A); conditions: read-out: Kd (μM) / ATP
T6 construct: covalently immobilised on CM4 sensor chip
T6 sequence (P35670 1036-1196 E1152A): T1 sequence (P35670 1036-1196 H1069Q) with Q34H, E117A
Excerpt: as §1

[7] = target: T7, ATP7B N-domain (Nucleotide binding domain) (Homo sapiens, UniProt P35670, D1167A/D1171A/E1152A)
T7 construct: covalently immobilised on CM4 sensor chip
T7 sequence (P35670 1036-1196 E1152A/D1167A/D1171A): T1 sequence (P35670 1036-1196 H1069Q) with Q34H, E117A, D132A, D136A
Excerpt: as §1

[8] = target: T8, ATP7B N-domain (Nucleotide binding domain) (Homo sapiens, UniProt P35670, D1171A); conditions: read-out: Kd (μM) / ATP
T8 construct: covalently immobilised on CM4 sensor chip
T8 sequence (P35670 1036-1196 D1171A): T1 sequence (P35670 1036-1196 H1069Q) with Q34H, D136A
Excerpt: as §1

Kd [1]: 76.5 ± 1.72 µM | Kd [2]: 82.7 ± 4.16 µM | Kd [3]: > 1000 µM | Kd [4]: 74.2 ± 2.52 µM | Kd [5]: 96.9 ± 3.91 µM | Kd [6]: 174 ± 3.82 µM | Kd [7]: > 1000 µM | Kd [8]: 81.1 ± 3.16 µM
SMILES: Nc1ncnc2c1ncn2[C@@H]1O[C@H](COP(=O)(O)OP(=O)(O)OP(=O)(O)O)[C@@H](O)[C@H]1O [ATP]
